From patent US10071082B2, “Antimicrobial agents” (Rutgers, The State University of New Jersey, priority 2013, dated 2018)

How the values were obtained:
MRSA = assay: Test A antibacterial assay, broth microdilution MIC; assay type: cell-based; conditions: Staphylococcus aureus, read-out: MIC MRSA
Procedure: (§1) Antibacterial activity can be determined as per Clinical and Laboratory Standards Institute (CLSI) guidelines using a broth microdilution assay in which log-phase bacteria are grown at 37° C. in appropriate medium containing two-fold serial dilutions of a compound to yield final concentrations ranging from 256 to 0.06 μg/mL. For determination of minimal inhibitory concentration (MIC) values, bacterial growth is monitored after 24 to 48 hours by measuring optical density at 600 nm.

MSSA = assay: as above; assay type: cell-based; conditions: Staphylococcus aureus, read-out: MIC MSSA
Procedure: as §1

[1] = test system: S. aureus ATCC 19636 (MSSA); assay: Test D in vivo efficacy, mouse peritonitis model of systemic infection; conditions: mice
[2] = test system: S. aureus ATCC 43300 (MRSA); assay: as above; conditions: mice, p.o.

CN1CCC(C(=O)NC(=O)c2c(F)ccc(OCc3nc4cc(C(F)(F)F)cnc4s3)c2F)CC1 [Example 44]
100%: Survival (%) ([1]; i.v., 2x, total dose 1.8 mg/mouse, 24 Hrs) | Survival (%) ([1]; i.v., 2x, total dose 1.8 mg/mouse, 48 Hrs) | Survival (%) ([1]; i.v., 2x, total dose 1.8 mg/mouse, 72 Hrs) | Survival (%) ([1]; p.o., 2x, total dose 1.6 mg/mouse, 24 Hrs) | Survival (%) ([1]; p.o., 2x, total dose 1.6 mg/mouse, 48 Hrs) | Survival (%) ([1]; p.o., 2x, total dose 1.6 mg/mouse, 72 Hrs) | Survival (%) ([1]; p.o., 3x, total dose 2.4 mg/mouse, 24 Hrs) | Survival (%) ([1]; p.o., 3x, total dose 2.4 mg/mouse, 48 Hrs) | Survival (%) ([1]; p.o., 3x, total dose 2.4 mg/mouse, 72 Hrs) | Survival (%) ([1]; p.o., 4x, total dose 3.2 mg/mouse, n/group 4, 24 Hrs) | Survival (%) ([1]; p.o., 4x, total dose 3.2 mg/mouse, n/group 4, 48 Hrs) | Survival (%) ([1]; p.o., 4x, total dose 3.2 mg/mouse, n/group 4, 72 Hrs)
50%: Survival (%) ([1]; p.o., 1x, total dose 0.8 mg/mouse, 24 Hrs) | Survival (%) ([1]; p.o., 1x, total dose 0.8 mg/mouse, 48 Hrs) | Survival (%) ([1]; p.o., 1x, total dose 0.8 mg/mouse, 72 Hrs)
83.3%: Survival (%) ([1]; i.v., 1x, total dose 0.9 mg/mouse, 24 Hrs) | Survival (%) ([1]; i.v., 1x, total dose 0.9 mg/mouse, 48 Hrs) | Survival (%) ([1]; i.v., 1x, total dose 0.9 mg/mouse, 72 Hrs)
2 µg/mL: MIC (MRSA)
0.5 µg/mL: MIC (MSSA)

CN1CCC(C(=O)NC(=O)c2c(F)ccc(OCc3nc4cc(Cl)cnc4s3)c2F)CC1 [Example 17]
2 µg/mL: MIC (MSSA)
50%: Survival (%) ([2]; 6x, total dose 4.8 mg/mouse, 48 Hrs) | Survival (%) ([2]; 6x, total dose 4.8 mg/mouse, 72 Hrs)
100%: Survival (%) ([1]; p.o., 4x, total dose 3.2 mg/mouse, first dose 5 minutes prior to infection, 24 Hrs) | Survival (%) ([1]; p.o., 4x, total dose 3.2 mg/mouse, first dose 5 minutes prior to infection, 48 Hrs) | Survival (%) ([1]; p.o., 4x, total dose 3.2 mg/mouse, first dose 5 minutes prior to infection, 72 Hrs) | Survival (%) ([2]; 6x, total dose 4.8 mg/mouse, first dose 5 minutes prior to infection, 24 Hrs) | Survival (%) ([2]; 6x, total dose 4.8 mg/mouse, first dose 5 minutes prior to infection, 48 Hrs) | Survival (%) ([2]; 6x, total dose 4.8 mg/mouse, first dose 5 minutes prior to infection, 72 Hrs) | Survival (%) ([2]; 6x, total dose 4.8 mg/mouse, first dose 10 minutes post-infection, 24 Hrs) | Survival (%) ([2]; 6x, total dose 4.8 mg/mouse, first dose 10 minutes post-infection, 48 Hrs) | Survival (%) ([2]; 6x, total dose 4.8 mg/mouse, first dose 10 minutes post-infection, 72 Hrs)
0%: Survival (%) ([1]; i.v., 1x, total dose 0.6 mg/mouse, first dose immediately prior to infection, 24 Hrs) | Survival (%) ([1]; i.v., 1x, total dose 0.6 mg/mouse, first dose immediately prior to infection, 48 Hrs) | Survival (%) ([1]; i.v., 1x, total dose 0.6 mg/mouse, first dose immediately prior to infection, 72 Hrs) | Survival (%) ([1]; i.v., 2x, total dose 1.2 mg/mouse, first dose immediately prior to infection, 24 Hrs) | Survival (%) ([1]; i.v., 2x, total dose 1.2 mg/mouse, first dose immediately prior to infection, 48 Hrs) | Survival (%) ([1]; i.v., 2x, total dose 1.2 mg/mouse, first dose immediately prior to infection, 72 Hrs) | Survival (%) ([1]; p.o., 1x, total dose 0.8 mg/mouse, first dose 5 minutes prior to infection, 24 Hrs) | Survival (%) ([1]; p.o., 1x, total dose 0.8 mg/mouse, first dose 5 minutes prior to infection, 48 Hrs) | Survival (%) ([1]; p.o., 1x, total dose 0.8 mg/mouse, first dose 5 minutes prior to infection, 72 Hrs) | Survival (%) ([1]; p.o., 2x, total dose 1.6 mg/mouse, first dose 5 minutes prior to infection, 24 Hrs) | Survival (%) ([1]; p.o., 2x, total dose 1.6 mg/mouse, first dose 5 minutes prior to infection, 48 Hrs) | Survival (%) ([1]; p.o., 2x, total dose 1.6 mg/mouse, first dose 5 minutes prior to infection, 72 Hrs)
83.3%: Survival (%) ([1]; i.v., 4x, total dose 2.4 mg/mouse, first dose immediately prior to infection, 24 Hrs) | Survival (%) ([1]; i.v., 4x, total dose 2.4 mg/mouse, first dose immediately prior to infection, 48 Hrs) | Survival (%) ([1]; i.v., 4x, total dose 2.4 mg/mouse, first dose immediately prior to infection, 72 Hrs) | Survival (%) ([1]; p.o., 4x, total dose 3.2 mg/mouse, 24 Hrs) | Survival (%) ([1]; p.o., 4x, total dose 3.2 mg/mouse, 48 Hrs) | Survival (%) ([1]; p.o., 4x, total dose 3.2 mg/mouse, 72 Hrs) | Survival (%) ([2]; 6x, total dose 4.8 mg/mouse, 24 Hrs)
66.7%: Survival (%) ([2]; 3x, total dose 2.4 mg/mouse, first dose 5 minutes prior to infection, 24 Hrs)
4 µg/mL: MIC (MRSA)
16.7%: Survival (%) ([2]; 3x, total dose 2.4 mg/mouse, first dose 5 minutes prior to infection, 48 Hrs) | Survival (%) ([2]; 3x, total dose 2.4 mg/mouse, first dose 5 minutes prior to infection, 72 Hrs)
33.3%: Survival (%) ([1]; i.v., 3x, total dose 1.8 mg/mouse, first dose immediately prior to infection, 24 Hrs) | Survival (%) ([1]; i.v., 3x, total dose 1.8 mg/mouse, first dose immediately prior to infection, 48 Hrs) | Survival (%) ([1]; i.v., 3x, total dose 1.8 mg/mouse, first dose immediately prior to infection, 72 Hrs)
